# Literature values as cited in patent US20080226653A1, “Inhibition of Platelet Aggregation” (THE UNIVERSITY OF MANITOBA, priority 2006, published 2008).
# Settings: clinical trials (Patrono et al., 1993)
smiles,measurement,value
"CC(=O)Oc1ccccc1C(=O)O [aspirin, Aspirin]",efficacy in preventing chronic complications in diabetic patients,only limited efficacy
